# Experimental data reported in patent publication US20230295118A1 (EnhancedBio Inc., priority 2022, published 2023).
# pIC50: −log10 of the molar value.
# Legend:
# Assay type in all cases: cell-based
# [1] = test system: mantle cell lymphoma cell (Mino or JeKo-1); test: Antiproliferative effect, MTS cell viability assay; settings: 72 h, mantle cell lymphoma cell (Mino or JeKo-1), MTS assay, read-out: IC50 (anti-proliferation)
# Method in brief: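 Mino cells treated with compounds at 0, 0.0001, 0.001, 0.01, 0.1, 1 μM for 72 h; palbociclib and abemaciclib as positive controls. Viability by MTS, formazan absorbance read at 490 nm.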
# CDK4 = molecular target: T1, CDK4 (Homo sapiens, UniProt P11802); test: CDK4 degradation (DC50, Dmax)
# T1 construct: endogenous in cells
# CDK6 = molecular target: T2, CDK6 (Homo sapiens, UniProt Q00534); test: CDK6 degradation (DC50, Dmax)
# T2 construct: endogenous in cells
# T2 sequence (Q00534 whole entry): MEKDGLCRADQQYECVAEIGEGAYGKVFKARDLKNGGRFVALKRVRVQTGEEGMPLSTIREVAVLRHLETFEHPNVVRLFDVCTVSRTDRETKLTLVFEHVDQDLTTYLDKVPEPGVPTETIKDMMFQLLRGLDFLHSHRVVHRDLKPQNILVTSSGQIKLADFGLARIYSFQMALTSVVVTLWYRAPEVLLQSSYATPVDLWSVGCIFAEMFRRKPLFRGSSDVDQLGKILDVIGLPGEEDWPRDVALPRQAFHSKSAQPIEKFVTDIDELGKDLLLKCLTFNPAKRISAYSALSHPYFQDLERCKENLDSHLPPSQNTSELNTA
# T1 sequence (P11802 whole entry): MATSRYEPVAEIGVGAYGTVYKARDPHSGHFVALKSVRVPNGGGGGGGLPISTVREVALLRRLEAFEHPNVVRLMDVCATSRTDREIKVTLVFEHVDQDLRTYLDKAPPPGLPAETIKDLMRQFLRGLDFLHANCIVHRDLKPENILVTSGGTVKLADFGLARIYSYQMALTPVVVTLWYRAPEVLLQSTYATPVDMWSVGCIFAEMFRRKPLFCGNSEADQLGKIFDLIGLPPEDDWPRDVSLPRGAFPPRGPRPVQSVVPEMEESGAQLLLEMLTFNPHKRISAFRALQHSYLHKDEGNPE
Compound,pIC50 [1],DC50 (CDK4),Dmax (CDK4),DC50 (CDK6),Dmax (CDK6)
"Cc1nc2c(F)cc(-c3nc(Nc4ccc(CC5CCN(CC6CN(c7ccc8c(c7)C(=O)N(C7CCC(=O)NC7=O)C8=O)C6)CC5)cn4)ncc3F)cc2n1C(C)C (stereo not shown) [Compound 139, 2-(2,6-dioxopiperidin-3-yl)-5-(3-((4-((6-((5-fluoro-4-(4-fluoro-1-isopropyl-2-methyl-1H-benzo[d]imidazol-6-yl)pyrimidin-2-yl)amino)pyridin-3-yl)methyl)piperidin-1-yl)methyl)azetidin-1-yl)isoindoline-1,3-dione]",> 7.30,< 50 nM,> 80%,< 50 nM,> 80%
"Cc1nc2c(F)cc(-c3nc(Nc4ccc(CC5CCN(CC6CN(c7ccc8c(c7)CN(C7CCC(=O)NC7=O)C8=O)C6)CC5)cn4)ncc3F)cc2n1C(C)C (stereo not shown) [Compound 140, 3-(5-(3-((4-((6-((5-fluoro-4-(4-fluoro-1-isopropyl-2-methyl-1H-benzo[d]imidazol-6-yl)pyrimidin-2-yl)amino)pyridin-3-yl)methyl)piperidin-1-yl)methyl)azetidin-1-yl)-1-oxoisoindolin-2-yl)piperidine-2,6-dione]",> 7.30,< 50 nM,> 80%,< 50 nM,> 80%
"Cc1nc2c(F)cc(-c3nc(Nc4ccc(CC5CCN(CC6CN(c7ccc(C(=O)NC8CCC(=O)NC8=O)cc7)C6)CC5)cn4)ncc3F)cc2n1C(C)C (stereo not shown) [Compound 141, N-(2,6-dioxopiperidin-3-yl)-4-(3-((4-((6-{(5-fluoro-4-(4-fluoro-1-isopropyl-2-methyl-1H-benzo[d]imidazol-6-yl)pyrimidin-2-yl)amino)pyridin-3-yl)methyl)piperidin-1-yl)methyl)azetidin-1-yl)benzamide]",> 7.30,50 to 200 nM,> 80%,50 to 200 nM,> 80%
"Cc1nc2c(F)cc(-c3nc(Nc4ccc(CC5CCN(CC6CN(c7ccc(NC8CCC(=O)NC8=O)cc7)C6)CC5)cn4)ncc3F)cc2n1C(C)C (stereo not shown) [Compound 142, 3-((4-(3-((4-((6-((5-fluoro-4-(4-fluoro-1-isopropyl-2-methyl-1H-benzo[d]imidazol-6-yl)pyrimidin-2-yl)amino)pyridin-3-yl)methyl)piperidin-1-yl)methyl)azetidin-1-yl)phenyl)amino) piperidine-2,6-dione]",> 7.30,50 to 200 nM,> 80%,50 to 200 nM,> 80%
"Cc1nc2c(F)cc(-c3nc(Nc4ccc(CC5CCN(C(=O)C6CN(c7ccc8c(c7)C(=O)N(C7CCC(=O)NC7=O)C8=O)C6)CC5)cn4)ncc3F)cc2n1C(C)C (stereo not shown) [Compound 143, 2-(2,6-dioxopiperidin-3-yl)-5-(3-(4-((6-((5-fluoro-4-(4-fluoro-1-isopropyl-2-methyl-1H-benzo[d]imidazol-6-yl)pyrimidin-2-yl)amino)pyridin-3-yl)methyl)piperidine-1-carbonyl)azetidin-1-yl)isoindoline-1,3-dione]",> 7.30,50 to 200 nM,> 80%,50 to 200 nM,> 60%
"Cc1nc2c(F)cc(-c3nc(Nc4ccc(CC5CCN(C(=O)C6CN(c7ccc8c(c7)CN(C7CCC(=O)NC7=O)C8=O)C6)CC5)cn4)ncc3F)cc2n1C(C)C (stereo not shown) [Compound 144, 3-(5-(3-(4-((6-((5-fluoro-4-(4-fluoro-1-isopropyl-2-methyl-1H-benzo[d]imidazol-6-yl)pyrimidin-2-yl)amino)pyridin-3-yl)methyl)piperidine-1-carbonyl)azetidin-1-yl)-1-oxoisoindolin-2-yl) piperidine-2,6-dione]",> 7.30,50 to 200 nM,> 80%,50 to 200 nM,> 80%
"Cc1nc2c(F)cc(-c3nc(Nc4ccc(CC5CCN(C(=O)C6CN(c7ccc(C(=O)NC8CCC(=O)NC8=O)cc7)C6)CC5)cn4)ncc3F)cc2n1C(C)C (stereo not shown) [Compound 145, N-(2,6-dioxopiperidin-3-yl)-4-(3-(4-((6-((5-fluoro-4-(4-fluoro-1-isopropyl-2-methyl-1H-benzo[d]imidazol-6-yl)pyrimidin-2-yl)amino)pyridin-3-yl)methyl)piperidine-1-carbonyl)azetidin-1-yl)benzamide]",> 7.30,50 to 200 nM,> 60%,50 to 200 nM,> 60%
"Cc1nc2c(F)cc(-c3nc(Nc4ccc(CC5CCN(C(=O)C6CN(c7ccc(NC8CCC(=O)NC8=O)cc7)C6)CC5)cn4)ncc3F)cc2n1C(C)C (stereo not shown) [Compound 146, 3-((4-(3-(4-((6-((5-fluoro-4-(4-fluoro-1-isopropyl-2-methyl-1H-benzo[d]imidazol-6-yl)pyrimidin-2-yl)amino)pyridin-3-yl)methyl)piperidine-1-carbonyl)azetidin-1-yl)phenyl)amino) piperidine-2,6-dione]",6.70 to 7.30,50 to 200 nM,> 50%,50 to 200 nM,> 60%
"Cc1nc2c(F)cc(-c3nc(Nc4ccc(CN5CCN(C6CN(c7ccc8c(c7)C(=O)N(C7CCC(=O)NC7=O)C8=O)C6)CC5)cn4)ncc3F)cc2n1C(C)C (stereo not shown) [Compound 147, 2-(2,6-dioxopiperidin-3-yl)-5-(3-(4-((6-((5-fluoro-4-(4-fluoro-1-isopropyl-2-methyl-1H-benzo[d]imidazol-6-yl)pyrimidin-2-yl)amino)pyridin-3-yl)methyl)piperazin-1-yl)azetidin-1-yl)isoindoline-1,3-dione]",6.70 to 7.30,< 50 nM,> 60%,50 to 200 nM,> 60%
"Cc1nc2c(F)cc(-c3nc(Nc4ccc(CC5CCN(C6CN(c7ccc8c(c7)C(=O)N(C7CCC(=O)NC7=O)C8=O)C6)CC5)cn4)ncc3F)cc2n1C(C)C (stereo not shown) [Compound 148, 2-(2,6-dioxopiperidin-3-yl)-5-(3-(4-((6-((5-fluoro-4-(4-fluoro-1-isopropyl-2-methyl-1H-benzo[d]imidazol-6-yl)pyrimidin-2-yl)amino)pyridin-3-yl)methyl)piperidin-1-yl)azetidin-1-yl)isoindoline-1,3-dione]",6.70 to 7.30,< 50 nM,> 60%,50 to 200 nM,> 60%
"Cc1nc2c(F)cc(-c3nc(Nc4ccc(CN5CCN(CC6CCN(c7ccc8c(c7)C(=O)N(C7CCC(=O)NC7=O)C8=O)CC6)CC5)cn4)ncc3F)cc2n1C(C)C (stereo not shown) [Compound 149, 2-(2,6-dioxopiperidin-3-yl)-5-(4-((4-((6-((5-fluoro-4-(4-fluoro-1-isopropyl-2-methyl-1H-benzo[d]imidazol-6-yl)pyrimidin-2-yl)amino)pyridin-3-yl)methyl)piperazin-1-yl)methyl)piperidin-1-yl)isoindoline-1,3-dione]",> 7.30,< 50 nM,> 80%,< 50 nM,> 80%
"Cc1nc2c(F)cc(-c3nc(Nc4ccc(CN5CCN(C6CCN(c7ccc(C(=O)NC8CCC(=O)NC8=O)cc7)CC6)CC5)cn4)ncc3F)cc2n1C(C)C (stereo not shown) [Compound 150, N-(2,6-dioxopiperidin-3-yl)-4-(4-(4-((6-((5-fluoro-4-(4-fluoro-1-isopropyl-2-methyl-1H-benzo[d]imidazol-6-yl)pyrimidin-2-yl)amino)pyridin-3-yl)methyl)piperazin-1-yl)piperidin-1-yl)benzamide]",> 7.30,< 50 nM,> 80%,< 50 nM,> 80%
"Cc1nc2c(F)cc(-c3nc(Nc4ccc(CN5CCN(CC6CCN(c7ccc(C(=O)NC8CCC(=O)NC8=O)cc7)CC6)CC5)cn4)ncc3F)cc2n1C(C)C (stereo not shown) [Compound 151, N-(2,6-dioxopiperidin-3-yl)-4-(4-((4-((6-((5-fluoro-4-(4-fluoro-1-isopropyl-2-methyl-1H-benzo[d]imidazol-6-yl)pyrimidin-2-yl)amino)pyridin-3-yl)methyl)piperazin-1-yl)methyl)piperidin-1-yl)benzamide]",> 7.30,50 to 200 nM,> 80%,50 to 200 nM,> 60%
"Cc1nc2c(F)cc(-c3nc(Nc4ccc(CN5CCN(CC6CCN(c7ccc(NC8CCC(=O)NC8=O)cc7)CC6)CC5)cn4)ncc3F)cc2n1C(C)C (stereo not shown) [Compound 152, 3-((4-(4-((4-((6-((5-fluoro-4-(4-fluoro-1-isopropyl-2-methyl-1H-benzo[d]imidazol-6-yl)pyrimidin-2-yl)amino)pyridin-3-yl)methyl)piperazin-1-yl)methyl)piperidin-1-yl)phenyl)amino) piperidine-2,6-dione]",> 7.30,< 50 nM,> 80%,50 to 200 nM,> 80%
Cc1nc2c(F)cc(-c3nc(Nc4ccc(CN5CCN(C(=O)C6CCN(c7ccc8c(c7)CN(C7CCC(=O)NC7=O)C8=O)CC6)CC5)cn4)ncc3F)cc2n1C(C)C (stereo not shown) [Compound 154],6.70 to 7.30,50 to 200 nM,> 60%,> 200 nM,> 60%
"Cc1nc2c(F)cc(-c3nc(Nc4ccc(CN5CCN(C(=O)C6CCN(c7ccc(C(=O)NC8CCC(=O)NC8=O)cc7)CC6)CC5)cn4)ncc3F)cc2n1C(C)C (stereo not shown) [Compound 155, N-(2,6-dioxopiperidin-3-yl)-4-(4-(4-((6-((5-fluoro-4-(4-fluoro-1-isopropyl-2-methyl-1H-benzo[d]imidazol-6-yl)pyrimidin-2-yl)amino)pyridin-3-yl)methyl)piperazine-1-carbonyl)piperidin-1-yl)benzamide]",6.70 to 7.30,50 to 200 nM,> 50%,> 200 nM,> 50%
"Cc1nc2c(F)cc(-c3nc(Nc4ccc(CN5CCN(C(=O)C6CCN(c7ccc(NC8CCC(=O)NC8=O)cc7)CC6)CC5)cn4)ncc3F)cc2n1C(C)C (stereo not shown) [Compound 156, 3-((4-(4-(4-((6-((5-fluoro-4-(4-fluoro-1-isopropyl-2-methyl-1H-benzo[d]imidazol-6-yl)pyrimidin-2-yl)amino)pyridin-3-yl)methyl)piperazine-1-carbonyl)piperidin-1-yl)phenyl)amino) piperidine-2,6-dione]",6.70 to 7.30,50 to 200 nM,> 60%,50 to 200 nM,> 80%
